Here are results for two compounds from paper PMC4137987 (Chemical Research in Toxicology, 2014).

A short description of series [1]: Excretion in urine and feces over 24 h after inhalation of PCB3. The format is in vivo, female Sprague–Dawley (SD) rats. The conditions noted are these: 0–24 h; PCB3 35 μg/rat; n = 3.
A short description of series [2]: Serum chemistry and serum free thyroxine. As to conditions: rats exposed to PCB3 for 2 h. The format is in vivo, female Sprague–Dawley (SD) rats.
Series [3] deals with urinary 8-oxo-dG. Nature of the series: Urinary 8-oxo-dG analysis. It counts as in vivo, female Sprague–Dawley (SD) rats. As to conditions: exposed rats; composite 24 h urine; not significant vs control (p = 0.23).
For series [4], the system named is granulosa and theca cells derived from porcine ovary. As to conditions: cited from earlier work.
A short description of series [5]: Serum concentration and clearance of PCB3 metabolites after inhalation. The format is in vivo, female Sprague–Dawley (SD) rats. As to conditions: 0 h postexposure; PCB3 26 μg/rat; mean ± SD, n = 3.

In the case of `Clc1ccc(-c2ccccc2)cc1` [PCB3, 4-chlorobiphenyl], in series [1], the “Unchanged PCB3 in feces, percentage of dose” value amounted to 4 ± 2% and the “Unchanged PCB3 in urine, percentage of dose” value is 2 ± 1%. For the same compound, the “Serum chemistry parameters (renal function, serum protein, T4, electrolyte balance, pancreas function, liver function, lipid metabolism)” value in series [2] is “within normal ranges”. In addition, in series [3], the “8-oxo-dG level in 24 h urine” value was found to be 160 ± 35 pg/mg creatinine. Moreover, the “Estradiol level in the medium” value in series [4] is given as “significant increase”.
For `Oc1ccc(-c2ccc(Cl)cc2)cc1` [4′OH-PCB3], the Serum concentration in series [5] is 7 ± 1 ng/mL. Further, the “Metabolite excreted in urine, percentage of dose” value in series [1] is reported as 1.0 ± 0.5%.
